Reference: patent US9598459B2, “Pharmaceutical compositions and methods” (priority 2015, dated 2017)
pEC50: −log10 of the molar value. In brackets after ≈: the same amount, converted by molar mass. Several values for one entry are separate records, joined by “and”; a condition that tells them apart may be missing. Equal values may be shown once. Read-outs that look alike come from different tables or passages of the source.

How the values were obtained:
Dengue 2 = experiment: Dengue virus antiviral screen in HUH7; assay type: cell-based, dengue virus type 2
Tacaribe TRVL11573 = experiment: microbe, parasite or virus in culture; assay type: cell-based, Tacaribe virus; conditions: Mammarenavirus tacaribeense, Vero
[1] = Cytotoxicity on RD host cells; assay type: cell-based; conditions: human, RD cells
cytosolic GRs [2] = target: T1, cytosolic GRs (Homo sapiens, UniProt P04150); experiment: Binding to cytosolic glucocorticoid receptors
T1 sequence (P04150 1-777): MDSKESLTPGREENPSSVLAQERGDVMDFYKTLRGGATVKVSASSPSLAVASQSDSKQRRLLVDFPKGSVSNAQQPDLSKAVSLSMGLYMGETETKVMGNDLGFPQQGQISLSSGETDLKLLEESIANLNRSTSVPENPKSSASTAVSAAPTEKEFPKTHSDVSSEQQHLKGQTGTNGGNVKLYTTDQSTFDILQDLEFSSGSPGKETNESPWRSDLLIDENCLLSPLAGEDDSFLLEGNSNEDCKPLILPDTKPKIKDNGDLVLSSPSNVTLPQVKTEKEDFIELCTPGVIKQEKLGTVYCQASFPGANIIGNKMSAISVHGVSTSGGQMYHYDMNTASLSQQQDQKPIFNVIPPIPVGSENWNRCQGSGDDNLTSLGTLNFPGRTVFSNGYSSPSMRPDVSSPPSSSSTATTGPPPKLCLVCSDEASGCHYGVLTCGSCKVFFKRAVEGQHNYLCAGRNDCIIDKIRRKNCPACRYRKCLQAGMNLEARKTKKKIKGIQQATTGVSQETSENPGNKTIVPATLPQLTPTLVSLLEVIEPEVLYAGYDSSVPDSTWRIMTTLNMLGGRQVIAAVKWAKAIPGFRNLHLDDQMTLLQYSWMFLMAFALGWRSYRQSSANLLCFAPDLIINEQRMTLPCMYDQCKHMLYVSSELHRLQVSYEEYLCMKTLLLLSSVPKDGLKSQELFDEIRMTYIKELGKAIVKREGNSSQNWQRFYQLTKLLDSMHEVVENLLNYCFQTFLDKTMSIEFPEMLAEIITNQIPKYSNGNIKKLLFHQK

MDCK = conditions: dog
cytosolic GRs [3] = target: T1, cytosolic GRs; conditions: Peeters et al., 2008; cited from earlier work
[4] = target: cytosolic progesterone receptors (PR) (Homo sapiens, UniProt P06401); conditions: Peeters et al., 2008; cited from earlier work
Chain of cytosolic progesterone receptors (PR) (P06401 whole entry): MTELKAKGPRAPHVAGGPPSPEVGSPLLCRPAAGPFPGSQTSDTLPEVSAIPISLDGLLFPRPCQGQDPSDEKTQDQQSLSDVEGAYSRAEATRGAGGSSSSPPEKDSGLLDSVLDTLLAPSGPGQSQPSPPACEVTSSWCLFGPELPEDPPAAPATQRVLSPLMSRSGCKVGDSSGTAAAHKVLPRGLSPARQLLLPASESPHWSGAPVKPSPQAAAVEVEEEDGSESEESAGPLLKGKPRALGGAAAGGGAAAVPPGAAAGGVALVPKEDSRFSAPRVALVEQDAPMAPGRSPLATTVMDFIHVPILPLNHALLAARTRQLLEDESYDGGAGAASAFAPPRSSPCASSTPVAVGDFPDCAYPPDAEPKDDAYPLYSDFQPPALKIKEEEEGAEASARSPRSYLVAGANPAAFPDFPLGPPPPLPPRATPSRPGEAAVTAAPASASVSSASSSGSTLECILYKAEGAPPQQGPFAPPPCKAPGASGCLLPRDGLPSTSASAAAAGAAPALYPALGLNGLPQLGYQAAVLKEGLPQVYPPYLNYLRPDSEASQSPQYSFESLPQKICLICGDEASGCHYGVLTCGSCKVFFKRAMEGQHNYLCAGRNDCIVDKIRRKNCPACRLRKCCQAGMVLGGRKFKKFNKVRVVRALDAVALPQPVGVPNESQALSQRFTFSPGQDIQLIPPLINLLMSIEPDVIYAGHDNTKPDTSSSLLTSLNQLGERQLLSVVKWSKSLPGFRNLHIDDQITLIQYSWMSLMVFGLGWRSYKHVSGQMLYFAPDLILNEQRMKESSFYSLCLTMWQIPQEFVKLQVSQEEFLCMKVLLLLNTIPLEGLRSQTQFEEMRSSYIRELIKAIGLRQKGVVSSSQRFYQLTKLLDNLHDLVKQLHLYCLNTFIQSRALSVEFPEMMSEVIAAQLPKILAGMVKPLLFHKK

[5] = cited from earlier work
in vitro [6] = conditions: African green monkey, Cytotoxicity CC50
in vitro [7] = experiment: in vitro
in vitro [8] = conditions: African green monkey
in vitro [9] = conditions: dog
Cytotoxicity on CCRF-CEM = conditions: human
[10] = Toxicity in RAW267.4 cells (neutral red); conditions: mouse, RAW267.4 cells, CC50, Neutral Red (Toxicity), Example 11
[11] = Cytotoxicity on primary human foreskin fibroblasts; conditions: human
[12] = test system: Japanese encepahalitis virus SA-14; experiment: Japanese encephalitis virus antiviral screen in Vero 76; assay type: cell-based; conditions: JEV SA-14, Vero 76
[13] = test system: West Nile virus Kern 515, WN02; experiment: West Nile virus antiviral screen in Vero 76; assay type: cell-based
RD = experiment: Cytotoxicity on RD host cells; assay type: cell-based
CCRF-CEM = experiment: Cytotoxicity on CCRF-CEM; conditions: CCRF-CEM
OM-10.1 cells = experiment: Toxicity in OM-10.1 (Cell Titer 96); conditions: for TOXICITY VALUES (Cell Titer 96): SAMPLE 1-3, MEAN
[14] = Visual (Cytopathic effect/Toxicity), unit from Conc. Range

`CC#C[C@]1(O)CC[C@H]2[C@@H]3CCC4=CC(=O)CCC4=C3[C@@H](c3ccc4c(c3)OCO4)C[C@@]21C` [PT150, (11β,17β)-11-(1,3-benzodioxol-5-yl)-17-hydroxy-17-(1-propynyl)-estra-4,9-dien-3-one] showed a pEC50 (Dengue 2; Dengue virus, Huh-7, Dengue 2, HUH7, Tables 2-3, read-out: EC50) of 5.24, an EC50 (Dengue 2; Dengue virus, Huh-7, New Guinea C, HuH-7, Neutral red, read-out: EC50) greater than 2.5 µg/mL and an EC50 (Dengue 2; Dengue virus, Huh-7, New Guinea C, HuH-7, Visual, read-out: EC50) of 3.2 µg/mL. The EC50 (Tacaribe TRVL11573) was 7.2 µM and 3.1 µg/mL, the CC50 ([1]; Cytotoxicity 50% CC50, Enterovirus D68 screen, Tables 5-6) was 10.2 µM and the CC50 ([1]; Enterovirus 68 screen, Table 4, read-out: CC50) was 10.2 µM. For the same compound, the CC50 ([1]; Enterovirus D68 screen, Neutral red, read-out: CC50) was 2.6 µg/mL, the CC50 ([1]; Enterovirus D68 screen, Visual, read-out: CC50) was 3.2 µg/mL and the “selectivity ratio (GR/PR)” value (cytosolic GRs [2]) was 57. For the same compound, the CC50 (MDCK) was 37 µg/mL (≈ 85.9 µM), the “bound to cytosolic GRs, value” (cytosolic GRs [3]) was 365% and the “value for the cytosolic progesterone receptors (PR)” value [4] was 6.4%. For the same compound, the “adverse indications of cell toxicity” value ([5]; Phase II, patients, 900 mg per day for 2 weeks) was “no noted adverse indications of cell toxicity”, the “significant toxicities and side effects” value ([5]; phase I and phase II clinical trials) was “none were identified” and the CC50 (in vitro [6]) was 44.3 µM. The CC50 (in vitro [7]; CC50) was greater than 100 µM, the CC50 (in vitro [7]; human, CC50) was 7.4 µM and 3.3 µg/mL and the CC50 (in vitro [7]; human, Cytotoxicity 50% CC50) was 7.4 µM. For the same compound, the CC50 (in vitro [8]) was 10.9 µM, the CC50 (in vitro [9]; CC50) was 29 µg/mL and the CC50 (in vitro [9]; Cytotoxicity 50% CC50) was 17 µM. The CC50 (Cytotoxicity on CCRF-CEM; CCRF-CEM cells (T-lymphoblastic acute T cell leukemia), Cytotoxicity CC50, CCRF-CEM) was 15.4 µM, the CC50 (Cytotoxicity on CCRF-CEM; CCRF-CEM cells, CC50, Cytotoxicity control, CCRF-CEM, CellTiter MTS) was 15.4 µM and the CC50 [10] was 33 µM. It also gave a CC50 ([11]; primary HFF-1 human foreskin fibroblasts, CC50) greater than 150 µM, a CC50 ([11]; primary HFF-1 human foreskin fibroblasts, CC50, Cytotoxicity control, Primary HFF-1, CellTiter-Glo) greater than 150 µM and a CC50 ([11]; primary human foreskin fibroblasts (HFF / HFF-1), CC50, HFF / HFF-1 primary cells) greater than 150 µM. The CC50 ([11]; primary human foreskin fibroblasts (HFF-1), CC50, Herpes simplex virus type 1 screen, Primary HFF-1, CellTiter-Glo) was greater than 150 µM.
With `CC#CC1(O)CCC2C3CCC4=CC(=NNC(N)=S)CCC4=C3C(c3ccc4c(c3)OCO4)CC21C.CC#CC1(O)CCC2C3CCC4=CC(=O)CCC4=C3C(c3ccc4c(c3)OCO4)CC21C.CC(C)=O.CCO.O` (stereo not drawn) [PT155, ⅓ (11β,17β)-17-Hydroxy-11-[3,4-(methylenedioxy)phenyl]-17-(1-propyn-1-yl)estra-4,9-dien-3-one (ORG34517)×(2EZ)-2-{(11β,17β)-17-hydroxy-11-[3,4-(methylenedioxy)phenyl]-17-(1-propyn-1-yl)estra-4,9-dien-3-ylidene}hydrazinecarbothioamide [71.8% (E), 28.2% (Z)] hemihydrate×¾% acetone× ⅛ ethanol] the EC50 (Dengue 2; New Guinea C, HuH-7, Neutral red) was greater than 3.3 µg/mL, the EC50 (Dengue 2; New Guinea C, HuH-7, Visual) was greater than 13 µg/mL and the “activity versus dengue virus type 2 strain New Guinea C (NGC) replication” value (Dengue 2; hGRalpha-expressing HuH-7 cells, words) was “inactive”. For the same compound, the EC50 ([12]; Neutral Red (Cytopathic effect/Toxicity)) was 2.6 µg/mL, the EC50 [12, 14] was 2.6 µg/mL and the EC50 ([13]; Neutral Red) was greater than 55 µg/mL. The EC50 [13, 14] was greater than 22 µg/mL, the CC50 (RD; Enterovirus D68 screen, Neutral red) was 8.1 µg/mL and the CC50 (RD; Enterovirus D68 screen, Visual) was 3.2 µg/mL. The CC50 (RD; read-out: Cytotoxicity 50% CC50, Enterovirus D68 screen, Tables 5-6) was 5.8 µM, the CC50 (PBMC) was 82.6 µM and the “cellular growth at fixed 100 μM concentration” value (Vero) was “(96.1) %”. The CC50 (HuH-7) was 39.7 µM, the CC50 (Vero 76) was 45.4 µM and the CC50 (MA-104) was 17 µM. For the same compound, the CC50 (CCRF-CEM; Cytotoxicity control, CellTiter MTS) was 7.1 µM, the CC50 (CCRF-CEM; read-out: Cytotoxicity CC50) was 7.1 µM and the “% CC” value (OM-10.1 cells; 0.01 μM) was 93.9%. The “TOXICITY VALUES (Cell Titer 96)” value (OM-10.1 cells; 0.01 μM) was 0.707 O.D. @ 490/650 nm and 0.669 O.D. @ 490/650 nm and 0.567 O.D. @ 490/650 nm, the “% CC” value (OM-10.1 cells; 0.03 μM) was 105.6% and the “TOXICITY VALUES (Cell Titer 96)” value (OM-10.1 cells; 0.03 μM) was 0.749 O.D. @ 490/650 nm and 0.794 O.D. @ 490/650 nm and 0.642 O.D. @ 490/650 nm. For the same compound, the “% CC” value (OM-10.1 cells; 0.10 μM) was 110.0%, the “TOXICITY VALUES (Cell Titer 96)” value (OM-10.1 cells; 0.10 μM) was 0.867 O.D. @ 490/650 nm and 0.820 O.D. @ 490/650 nm and 0.590 O.D. @ 490/650 nm and the “% CC” value (OM-10.1 cells; 1.00 μM) was 119.25%. For the same compound, the “TOXICITY VALUES (Cell Titer 96)” value (OM-10.1 cells; 1.00 μM) was 0.937 O.D. @ 490/650 nm and 0.911 O.D. @ 490/650 nm and 0.618 O.D. @ 490/650 nm, the “% CC” value (OM-10.1 cells; 3.16 μM) was 109.6% and the “TOXICITY VALUES (Cell Titer 96)” value (OM-10.1 cells; 3.16 μM) was 0.896 O.D. @ 490/650 nm and 0.800 O.D. @ 490/650 nm and 0.572 O.D. @ 490/650 nm. For the same compound, the “% CC” value (OM-10.1 cells; 10.0 μM) was 105.7%, the “TOXICITY VALUES (Cell Titer 96)” value (OM-10.1 cells; 10.0 μM) was 0.828 O.D. @ 490/650 nm and 0.761 O.D. @ 490/650 nm and 0.599 O.D. @ 490/650 nm and the “% CC” value (OM-10.1 cells; 31.6 μM) was 93.4%. The “TOXICITY VALUES (Cell Titer 96)” value (OM-10.1 cells; 31.6 μM) was 0.714 O.D. @ 490/650 nm and 0.682 O.D. @ 490/650 nm and 0.536 O.D. @ 490/650 nm, the “% CC” value (OM-10.1 cells; 100 μM) was 112.5% and the “TOXICITY VALUES (Cell Titer 96)” value (OM-10.1 cells; 100 μM) was 0.777 O.D. @ 490/650 nm and 0.775 O.D. @ 490/650 nm. For the same compound, the “TC 90%” value (OM-10.1 cells; OM-10.1) was greater than 100 µM, the “TC 95%” value (OM-10.1 cells; OM-10.1) was greater than 100 µM and the CC50 (OM-10.1 cells; OM-10.1, Table 7) was greater than 100 µM. The CC50 (OM-10.1 cells; read-out: TC 50%, OM-10.1) was greater than 100 µM.
